Assay results as given in patent publication US5162315A, “Penetration enhancers” (priority 1989, dated 1992).

How the values were obtained:
[1] = type: in vitro ADME, human
Method: The compounds of the present invention were tested in vitro as penetration enhancers according to the procedure outlined below.
(§1) Human stratum corneum was isolated from full thickness human skin as described by Bronaugh et al., J. Pharm. Sci. 75, 1094 (1986). The skin was placed between the donor and the receptor compartments of diffusion cells in such a way that the dermal side of the skin faced the receptor compartment which was filled with normal saline (pH 7.2-7.4). The stratum corneum was equilibrated at 37° C. overnight prior to the application of a topical formulation or transdermal patch. All formulations were studied in triplicate.
(§2) About 500 mg of the following three Isosorbide Dinitrate (ISDN) formulations (40% ISDN & 60% Lactose) were applied to cover the stratum corneum surface within the donor compartment. The entire contents of the receptor compartment were removed at specific time intervals over 48 hours and replenished with fresh saline. The aliquots were analyzed by HPLC and the average cumulative amount of ISDN in micrograms permeating over the study period was calculated.
Procedure of Example 8 was repeated with the following

[2] = type: in vitro ADME, human; remark: listed apart in the source
Method: The compounds of the present invention were tested in vitro as penetration enhancers according to the procedure outlined below. The penetration enhancers were formulated with pharmacologically active agents in creams and permeation of the active agent through human stratum corneum in vitro was compared to control formulation without enhancer. Higher permeation of the active agent in presence of an enhancer exemplified the invention.
as §1, §2
Procedure of Example 8 was repeated with the following Haloperiodol Decanoate (HD) cream formulations. Saline in the receptor compartment was substituted with saline/isopropyl alcohol (1:1).

| Structure (SMILES) | Average Cumulative Amount of HC in Micrograms permeating over 48 hours [1] [Micrograms] | Average Cumulative Amount of HD in Micrograms permeating over 51 hours [2] [Micrograms] | HD permeation compared to control [2] | HC permeation compared to control cream [1] | HC permeation enhancement compared to cyclic isomer [1] |
| --- | --- | --- | --- | --- | --- |
| CCCCCCCCCCCC1=NCCN1CCO [1-(2-hydroxyethyl)-2-undecyl-2-imidazoline, reference compound] | 67.53 ± 3.34 | – | – | – | – |
| CCCCCCCCCCCC(=O)N1CCN(CCO)CC1 [Example 5, 1-(1-oxododecyl)-4-(2-hydroxyethyl)piperazine] | – | 936.66 ± 16.98 | higher HD permeation as compared to control | – | – |
| CCCCCCCCCCCC(=O)NCCNCCO [Example 1, N-[2-(2-hydroxyethyl)aminoethyl]dodecanamide] | 55.19 ± 5.16 | – | – | superior permeation as compared to control cream | as effective as its cyclic isomer |
| CCCCCCCCCC(=O)OC1(c2ccc(Cl)cc2)CCN(CCCC(=O)c2ccc(F)cc2)CC1 [HD, Haloperiodol Decanoate, reference compound] | – | 617.68 ± 17.68 | – | – | – |
